{"source": "patent US20060116397A1", "about": "“Use of saquinavir as a radiation sensitizer” (The Trustees of the University of Pennsylvania, priority 2004, published 2006)", "key": {"Akt [1]": {"system": "Akt", "experiment": "Western blot analysis of Akt phosphorylation in SQ2OB head-and-neck cancer cell line", "format": "cell-based, human", "conditions": "SQ2OB cells, 25 μM saquinavir, within 20 minutes, Western blot (FIG. 3)", "description": "Using Western blot analysis, a human head-and-neck cancer cell line, SQ2OB, containing a constitutively-active EGFR receptor and thus, increased signaling through PI3K, was examined for Akt phosphorylation."}, "cells in tissue culture": {"system": "cells in tissue culture", "experiment": "Toxicity to cells in tissue culture", "format": "cell-based"}, "T24 cells": {"system": "T24 cells", "experiment": "Clonogenic assay, radiation sensitization (surviving fraction after 2 Gy)", "format": "cell-based", "description": "Cultures of cells in log growth phase were counted and plated in 60-mm dishes containing 4 ml of media. The cells were allowed to attach and saquinavir was added to cultures at least one hour prior to irradiation. Cells were irradiated with a Mark I cesium irradiator (J. L. Shepherd, San Fernando, Calif.) at a dose rate of 1.6 Gy/min. Colonies were stained and counted 10-14 days after irradiation. A light box was used to assist in counting colonies. The surviving fraction was calculated by dividing the number of colonies formed by the number of cells plated times plating efficiency (Table 1). Each point value represents the mean surviving fraction from at least six replicate dishes."}, "Akt [2]": {"system": "Akt", "experiment": "Western blot of Akt phosphorylation in white blood cells of HIV patients", "format": "in vivo, human", "conditions": "HIV patients taking saquinavir vs HIV patients not using saquinavir", "description": "As a proof of principle, it was examined whether there was down-regulation of Akt in HIV patients who are being actively treated with HPIs. Blood samples were obtained from HIV patients on courses of various combinations of drugs. WBCs were isolated and stained for Akt using a Western Blot."}}, "note": "Entries after “also recorded” stand apart in the source; their conditions may differ.", "data": [{"smiles": "CC(C)(C)NC(=O)[C@@H]1C[C@@H]2CCCC[C@@H]2CN1C[C@@H](O)[C@H](Cc1ccccc1)NC(=O)[C@H](CC(N)=O)NC(=O)c1ccc2ccccc2n1", "note": "[saquinavir]", "values": [{"measurement": "Akt phosphorylation at Ser 473 and at Thr 308", "setting": "Akt [1]", "value": "down-regulation of Akt phosphorylation at Ser 473 and at Thr 308"}, {"measurement": "toxicity to cells in tissue culture", "setting": "cells in tissue culture", "value": "toxic to cells in tissue culture"}, {"measurement": "difference in cell kill (enhanced kill) vs radiation alone", "setting": "T24 cells; T24, 30 fractions of 2 Gy", "value": "~5", "unit": "log"}, {"measurement": "surviving fraction after 2 Gy (SF2)", "setting": "T24 cells; T24 cells, 10 μM saquinavir + 2 Gy radiation, control 56%", "value": 36, "unit": "%"}, {"measurement": "saquinavir SF2", "setting": "T24 cells; T24 cells, saquinavir added at least one hour prior to irradiation, colonies counted 10-14 days after, mean of at least six dishes, control 0.560 +/− 0.061", "value": "0.380 +/− 0.168"}, {"measurement": "Akt phosphorylation in white blood cells", "setting": "Akt [2]", "value": "decreased Akt phosphorylation; also recorded: lower levels of Akt phosphorylation"}]}]}
